# Results as given in patent US5312815A, “Fungicidal (+)-2-(2,4-difluorophenyl)-3-methyl-1-(1H-1,2,4-triazol-1-yl)3-(6-(1H-1, 2,4-triazol-1-yl)pyridazin-3-ylthio) butan-2-ol” (Roussel Morishita Co., Ltd., priority 1992, dated 1994).
# What was measured:
# [1] = test system: Aspergillus fumigatus; experiment: In vitro antifungal activity, MIC on mycelium formation; format: cell-based; settings: 37° C., 24 hours, Eagle's MEM with 10% fetal bovine serum
# Description: (§1) Candida albicans (10^2 cells) or Aspergillus fumigatus (10^3 cells) was inoculated to 200 μl of an Eagle's minimum essential medium containing 10% fetal bovine serum and a test compound shown in Table 2 below at a dilution increasing by a factor of 2. The system was incubated at 37° C. for 24 hours in a 5 v/v% CO2 stream to obtain the minimum inhibitory concentration (MIC) on mycelium formation.
# [2] = test system: Candida albicans; experiment: as above; format: cell-based; settings: 37° C., 24 hours, Eagle's MEM with 10% fetal bovine serum
# Description: as §1
# [3] = test system: Aspergillus fumigatus Kawasaki strain; experiment: In vivo antifungal activity, Aspergillus fumigatus infected mice, oral; parameters: species or system mouse; settings: 25 mg/kg p.o. twice a day, 4 days; for Mean Survival Days: 10 days observation; for Survival Number on Day 1 / Survival Number on Day 2 / Survival Number on Day 3 / Survival Number on Day 4 / Survival Number on Day 5 / Survival Number on Day 6 / Survival Number on Day 7 / Survival Number on Day 8 / Survival Number on Day 9 / Survival Number on Day 10: of 9 mice
# Description: (§2) Asperoillus fumigatus Kawasaki strain having been cultured at 27° C. for 1 week was suspended in physiological saline, and the suspension (3×10^6 cells) was injected into the tail vein of a 4-week-old day male mouse (9 mice per group). Two days before the infection and on the day of the infection, 100 mg/kg of cyclophosphamide was intraperitoneally administered to each animal.
# For comparison, compound (A) shown below which is described in EP 0421210A2, fluconazole (FCZ) and itraconazole (ITZ), were used as a comparative substance. Itraconazole was administered in a polyethylene glycol (400) solution. [drawing 4]
# [4] = test system: Candida albicans CAA-14 strain; experiment: In vivo antifungal activity, Candida albicans infected mice, i.v.; parameters: species or system ICR male mouse; settings: 5 mg/kg i.v. twice a day, 2 days, Example 1 as G2-β-CyD complex, FCZ in saline; for Mean Survival Days: 10 days observation; for Survival Number on Day 1 / Survival Number on Day 2 / Survival Number on Day 3 / Survival Number on Day 4 / Survival Number on Day 5 / Survival Number on Day 6 / Survival Number on Day 7 / Survival Number on Day 8 / Survival Number on Day 9 / Survival Number on Day 10: of 9 mice
# Description: Candida albicans CAA-14 strain having been cultured at 30° C. for 24 hours was suspended in physiological saline, and the cell suspension (5×10^6 cells) was injected into the tail vein of a 5-week-old ICR male mouse (9 mice per group). Two days before the infection and on the day of the infection, 100 mg/kg of cyclophosphamide was intraperitoneally administered to each animal.
# (§3) For comparison, fluconazole was used as a comparative substance.
# [5] = Plasma level in dogs (HPLC); format: in vivo, beagles (dogs); settings: dog; for concentration at 0.5 h / concentration at 1 h / concentration at 2 h / concentration at 3 h / concentration at 5 h / concentration at 8 h / concentration at 24 h: plasma
# Description: Two beagles per group each received an oral preparation of an inclusion complex composed of the compound of Example 1 and maltosyl-β-cyclodextrin (G2 -β-CyD) at a dose of 10 mg of the compound of Example 1 per kg-b.w. or an intravenous injection of the inclusion complex at a dose of 5 mg of the compound of Example 1 per kg-b.w. For comparison, a suspension of the compound of Example 1 in 0.5% methyl cellulose (MC) was orally administered at a dose of 10 mg per kg-b.w. A-blood sample was taken at 0.5, 1, 2, 3, 5, 8, and 24 hours after administration. After deproteination, the concentration of the compound of formula (I) in the sample was determined by high performance liquid chromatography (HPLC).
# [6] = test system: Aspergillus fumigatus Kawasaki strain; experiment: In vivo antifungal activity, Aspergillus fumigatus infected mice, i.v.; parameters: species or system mouse; settings: 12.5 mg/kg i.v. twice a day, 4 days; for Mean Survival Days / Survival Number on Day 1 / Survival Number on Day 2 / Survival Number on Day 3: Example 1 as G2-β-CyD complex, FCZ in saline; for Mean Survival Days: 10 days observation
# Description: as §2, with “Aspergillus fumigatus Kawasaki” for “Asperoillus fumigatus Kawasaki”, “and the cell suspension (3×10^6” for “and the suspension (3×10^6”
# as §3
# [7] = Acute toxicity in mice; format: in vivo, ICR male mouse; settings: 1000 mg/kg oral, in 0.5% MC, 5 mice per group, 7 days
# [8] = Toxicity in maintained administration in rats; format: in vivo, Crj:CD male rat; settings: 100 or 300 mg/kg once a day, 2 weeks, in 0.5% MC
# Description: A 6-week-old Crj:CD male rat (6 rats per group) was maintained on the compound of Example 1 or fluconazole suspended in 0.5% MC at a dose of 100 mg/kg or 300 mg/kg once a day for 2 consecutive weeks. Manifestations of toxicity were observed through observation of general signs, body weight measurement, biochemical examination of blood, organ weight measurements, and postmortem examinations.
# [9] = iv, 5 mg/kg, G2-β-CyD inclusion complex
# [10] = po, 10 mg/kg, G2-β-CyD inclusion complex
# [11] = po, 10 mg/kg, suspension in 0.5% MC
smiles,measurement,setting,value
"CC(C)(Sc1ccc(-n2cncn2)nn1)C(O)(Cn1cncn1)c1ccc(F)cc1F (single isomer, unassigned; (+)) [Example 1, (+)-2-(2,4-difluorophenyl)-3-methyl-1-(1H-1,2,4-triazol-1-yl)-3-(6-(1H-1,2,4-triazol-1-yl)pyridazin-3-ylthio)butan-2-ol]","MIC on Mycelium Formation, A. fumigatus",[1],3.13 µg/mL
same,"MIC on Mycelium Formation, C. albicans",[2],0.05 µg/mL
same,Mean Survival Days,[3]; G2-β-CyD inclusion complex,> 10 days
same,Mean Survival Days,[3]; in 0.5% MC (ITZ: in PEG 400),5.9 days
same,Survival Number on Day 1,[3]; G2-β-CyD inclusion complex,9
same,Survival Number on Day 2,[3]; G2-β-CyD inclusion complex,9
same,Survival Number on Day 3,[3]; G2-β-CyD inclusion complex,9
same,Survival Number on Day 4,[3]; G2-β-CyD inclusion complex,9
same,Survival Number on Day 5,[3]; G2-β-CyD inclusion complex,9
same,Survival Number on Day 6,[3]; G2-β-CyD inclusion complex,9
same,Survival Number on Day 7,[3]; G2-β-CyD inclusion complex,9
same,Survival Number on Day 8,[3]; G2-β-CyD inclusion complex,9
same,Survival Number on Day 9,[3]; G2-β-CyD inclusion complex,9
same,Survival Number on Day 10,[3]; G2-β-CyD inclusion complex,9
same,Survival Number on Day 5,[3]; in 0.5% MC,5
same,Survival Number on Day 6,[3]; in 0.5% MC,4
same,Survival Number on Day 7,[3]; in 0.5% MC,4
same,Survival Number on Day 8,[3]; in 0.5% MC,2
same,Survival Number on Day 9,[3]; in 0.5% MC,2
same,Survival Number on Day 10,[3]; in 0.5% MC,2
same,Survival Number on Day 1,[3]; in 0.5% MC (ITZ: in PEG 400),9
same,Survival Number on Day 2,[3]; in 0.5% MC (ITZ: in PEG 400),9
same,Survival Number on Day 3,[3]; in 0.5% MC (ITZ: in PEG 400),9
same,Survival Number on Day 4,[3]; in 0.5% MC (ITZ: in PEG 400),5
same,Mean Survival Days,[4],> 10.0 days
same,Survival Number on Day 1,[4],9
same,Survival Number on Day 2,[4],9
same,Survival Number on Day 3,[4],9
same,Survival Number on Day 4,[4],9
same,Survival Number on Day 5,[4],9
same,Survival Number on Day 6,[4],9
same,Survival Number on Day 7,[4],9
same,Survival Number on Day 8,[4],9
same,Survival Number on Day 9,[4],9
same,Survival Number on Day 10,[4],9
same,absorption from the gastrointestinal tract,"[5]; p.o., inclusion complex with cyclodextrin derivative vs MC suspension",markedly increased absorption from the gastrointestinal tract
same,concentration at 0.5 h,[5]; [9],4100 ng/mL
same,concentration at 1 h,[5]; [9],3400 ng/mL
same,concentration at 2 h,[5]; [9],2800 ng/mL
same,concentration at 3 h,[5]; [9],2000 ng/mL
same,concentration at 5 h,[5]; [9],1700 ng/mL
same,concentration at 8 h,[5]; [9],1300 ng/mL
same,concentration at 24 h,[5]; [9],300 ng/mL
same,concentration at 0.5 h,[5]; [10],2500 ng/mL
same,concentration at 1 h,[5]; [10],2800 ng/mL
same,concentration at 2 h,[5]; [10],2900 ng/mL
same,concentration at 3 h,[5]; [10],2600 ng/mL
same,concentration at 5 h,[5]; [10],2500 ng/mL
same,concentration at 8 h,[5]; [10],2200 ng/mL
same,concentration at 24 h,[5]; [10],700 ng/mL
same,concentration at 0.5 h,[5]; [11],300 ng/mL
same,concentration at 1 h,[5]; [11],300 ng/mL
same,concentration at 2 h,[5]; [11],300 ng/mL
same,concentration at 3 h,[5]; [11],200 ng/mL
same,concentration at 5 h,[5]; [11],400 ng/mL
same,concentration at 8 h,[5]; [11],300 ng/mL
same,concentration at 24 h,[5]; [11],200 ng/mL
same,Mean Survival Days,[6],> 9.0 days
same,Survival Number on Day 1,[6]; of 9 mice,9
same,Survival Number on Day 2,[6]; of 9 mice,9
same,Survival Number on Day 3,[6]; of 9 mice,9
same,Survival Number on Day 4,"[6]; of 9 mice, G2-β-CyD complex",9
same,Survival Number on Day 5,"[6]; of 9 mice, G2-β-CyD complex",8
same,Survival Number on Day 6,"[6]; of 9 mice, G2-β-CyD complex",8
same,Survival Number on Day 7,"[6]; of 9 mice, G2-β-CyD complex",8
same,Survival Number on Day 8,"[6]; of 9 mice, G2-β-CyD complex",7
same,Survival Number on Day 9,"[6]; of 9 mice, G2-β-CyD complex",7
same,Survival Number on Day 10,"[6]; of 9 mice, G2-β-CyD complex",7
same,"life or death, acute toxicity",[7],No case of death
"OC(Cn1cncn1)(Cn1cncn1)c1ccc(F)cc1F [FCZ, fluconazole, reference compound]",Mean Survival Days,[3]; in 0.5% MC (ITZ: in PEG 400),2.0 days
same,Survival Number on Day 1,[3]; in 0.5% MC (ITZ: in PEG 400),9
same,Survival Number on Day 2,[3]; in 0.5% MC (ITZ: in PEG 400),9
same,Survival Number on Day 3,[3]; in 0.5% MC (ITZ: in PEG 400),0
same,Mean Survival Days,[4],6.3 days
same,Survival Number on Day 1,[4],9
same,Survival Number on Day 2,[4],9
same,Survival Number on Day 3,[4],8
same,Survival Number on Day 4,[4],8
same,Survival Number on Day 5,[4],8
same,Survival Number on Day 6,[4],6
same,Survival Number on Day 7,[4],3
same,Survival Number on Day 8,[4],2
same,Survival Number on Day 9,[4],2
same,Survival Number on Day 10,[4],1
same,manifestations of toxicity,[8],"production of hepatomegaly and enlargement of the suprarenalcapsules, with the degree thereof depending on dosage"
same,Mean Survival Days,[6],2.0 days
same,Survival Number on Day 1,[6]; of 9 mice,9
same,Survival Number on Day 2,[6]; of 9 mice,9
same,Survival Number on Day 3,[6]; of 9 mice,0
"CCC(C)n1ncn(-c2ccc(N3CCN(c4ccc(OCC5COC(Cn6cncn6)(c6ccc(Cl)cc6Cl)O5)cc4)CC3)cc2)c1=O (stereo not drawn) [ITZ, itraconazole, reference compound]",Mean Survival Days,[3]; in 0.5% MC (ITZ: in PEG 400),2.1 days
same,Survival Number on Day 1,[3]; in 0.5% MC (ITZ: in PEG 400),9
same,Survival Number on Day 2,[3]; in 0.5% MC (ITZ: in PEG 400),9
same,Survival Number on Day 3,[3]; in 0.5% MC (ITZ: in PEG 400),9
same,Survival Number on Day 4,[3]; in 0.5% MC (ITZ: in PEG 400),1
"CC(C)(Sc1ccc(-n2cncn2)nn1)C(O)(Cn1cncn1)c1ccc(F)cc1F (single isomer, unassigned; (-)) [Reference Example 12, (-)-2-(2,4-difluorophenyl)-3-methyl-1-(1H-1,2,4-triazol-1-yl)-3-(6-(1H-1,2,4-triazol-1-yl)-pyridazin-3-ylthio)butan-2-ol, reference compound]","MIC on Mycelium Formation, A. fumigatus",[1],100 µg/mL
same,"MIC on Mycelium Formation, C. albicans",[2],1.56 µg/mL
"Cc1nnc(SC(C)C(O)(Cn2cncn2)c2ccc(F)cc2F)s1 (stereo not drawn) [compound (A), reference compound]",Mean Survival Days,[3]; in 0.5% MC (ITZ: in PEG 400),2.3 days
same,Survival Number on Day 1,[3]; in 0.5% MC (ITZ: in PEG 400),9
same,Survival Number on Day 2,[3]; in 0.5% MC (ITZ: in PEG 400),9
same,Survival Number on Day 3,[3]; in 0.5% MC (ITZ: in PEG 400),3
same,Survival Number on Day 4,[3]; in 0.5% MC (ITZ: in PEG 400),0
same,"life or death, acute toxicity",[7],all of the mice died
